These are literature values, as cited in publication PMC11667226 (Theranostics, 2025).

This data set has as its system EGFR. The note with it: microscopic histopathology as reference; ref Van Keulen et al. [36]; cited from earlier work. An excerpt:
Van Keulen et al. reported a 95% sensitiv ...

Take “panitumumab-IRDye800: antibody-based optical imaging agent targeting EGFR”: the “Sensitivity for detection of inadequate margins (< 5mm)” value is reported as 95% and the “Specificity for detection of inadequate margins (< 5mm)” value is given as 89%.
